# Measured values published in US5998362A, “Conjugates useful in the treatment of prostate cancer” (priority 1997, dated 1999).
# Where a SMILES comes first, the peptide text is derived from it. [ ]: non-standard residue; d: D form. The star is where a group is joined. Doxorubicin(3'-N) = COc1cccc2c1C(=O)c1c(O)c3c(c(O)c1C2=O)C[C@@](O)(C(=O)CO)C[C@@H]3O[C@H]1C[C@H](N*)[C@H](O)[C@H](C)O1; X2 = COCCOCCOCCOCCOCCOCCOCCOCCOCCOCCOCCOCCOCCOCCOCCOCCOCC(=O)*; Decanoyl(3,6,9-trioxa) = COCCOCCOCC(=O)*; Glyceroyl(2R) = O=C([C@H](O)CO)*; X1 = COCCOCCOCCOCCOCCOCCOCC(=O)*; hArg = N=C(N)NCCCC[C@H](N)C(=O)O; 3Pal = N[C@@H](Cc1cccnc1)C(=O)O; MeOCH2CH2OCH2CO = COCCOCC(=O)*; X4 = O=C([C@H](O)[C@@H](O)CO)*; Chg = N[C@H](C(=O)O)C1CCCCC1; Nle = CCCC[C@H](N)C(=O)O; Glycolyl = O=C(CO)*; X3 = O=C(C(O)CO)*
# Experiments:
# DuPRO cells = test: In vitro cytotoxicity of peptidyl derivatives of doxorubicin, Alamar Blue assay, DuPRO; assay type: cell-based; conditions: 3 days incubation, read-out: DuPRO cell kill EC 50 (μM), value in parentheses
# Procedure: The cytotoxicities of the cleaveable oligopeptide-doxorubicin conjugates, prepared as described in Examples 3-6, against a line of cells which is known to be killed by unmodified doxorubicin was assessed with an Alamar Blue assay. Specifically, cell cultures of LNCap prostate tumor cells or DuPRO cells in 96 well plates was diluted with medium containing various concentrations of a given conjugate (final plate well volume of 200 μl). The cells were incubated for 3 days at 37° C., 20 μl of Alamar Blue is added to the assay well. The cells were further incubated and the assay plates were read on a EL-310 ELISA reader at the dual wavelengths of 570 and 600 nm at 4 and 7 hours after addition of Alamar Blue. Relative percentage viability at the various concentration of conjugate tested was then calculated versus control (no conjugate) cultures. If no salt is indicated, the free conjugate was tested.
# free PSA [1] = target: T1, free PSA (Homo sapiens, UniProt P07288); test: Recognition of oligopeptide-doxorubicin conjugates by free PSA (time to 50% cleavage, HPLC); assay type: biochemical; parameters: required for 50% cleavage of the noted oligopeptides with enzymatically active free PSA; conditions: Table 3, DOX conjugates
# T1 sequence (P07288 25-261): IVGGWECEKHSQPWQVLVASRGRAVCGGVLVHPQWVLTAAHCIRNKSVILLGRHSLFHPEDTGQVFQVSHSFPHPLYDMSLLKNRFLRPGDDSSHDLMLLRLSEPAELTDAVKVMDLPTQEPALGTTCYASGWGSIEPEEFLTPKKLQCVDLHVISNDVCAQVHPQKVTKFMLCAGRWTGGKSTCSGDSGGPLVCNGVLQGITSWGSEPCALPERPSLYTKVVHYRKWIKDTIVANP
# Procedure: If no salt is indicated for the conjugate, the free conjugate was tested.
# free PSA [2] = target: T1, free PSA; test: Recognition of oligopeptides by free PSA (time to 50% cleavage, HPLC)
# Procedure: The oligopeptides prepared as described in Example 1 were individually dissolved in PSA digestion buffer (12 mM tris(hydroxymethyl)-aminomethane pH8.0, 25 mM NaCl, 0.5 mM CaCl2) and the solution added to PSA at a molar ration of 100 to 1. The reaction is quenched after various reaction times by the addition of trifluoroacetic acid (TFA) to a final 1% (volume/volume). The quenched reaction was analyzed by HPLC on a reversed-phase C18 column using an aqueous 0.1% TFA/acetonitrile gradient. […] Oligopeptides containing free amine moieties (ie. comprising hArg, Orn, Lys and or 3PAL) were tested as TFA salts. All other oligopeptides were tested as neutral compounds.
smiles,measurement,setting,value
"COc1cccc2c1C(=O)c1c(O)c3c(c(O)c1C2=O)C[C@@](O)(C(=O)CO)C[C@@H]3O[C@H]1C[C@H](NC(=O)[C@H](CC(C)C)NC(=O)[C@H](CO)NC(=O)[C@H](CO)NC(=O)[C@H](CO)NC(=O)[C@H](CCC(N)=O)NC(=O)[C@H](Cc2ccc(O)cc2)NC(=O)[C@H](CO)NC(=O)CO)[C@H](O)[C@H](C)O1 [2-hydroxyacetyl-SYQ-SSSL-DOX(3'), 2-hydroxyacetyl-SerTyrGln-SerSerSerLeu-DOX (3')] (Glycolyl-SYQSSSL-{Doxorubicin(3'-N)})",EC50,DuPRO cells,50 µM
"COc1cccc2c1C(=O)c1c(O)c3c(c(O)c1C2=O)C[C@@](O)(C(=O)CO)C[C@@H]3O[C@H]1C[C@H](NC(=O)[C@H](CC(C)C)NC(=O)[C@H](CO)NC(=O)[C@H](CCC(N)=O)NC(=O)[C@@H](NC(=O)[C@H](CCCCNC(=N)N)NC(=O)[C@H](O)[C@@H](O)CO)C2CCCCC2)[C@H](O)[C@H](C)O1 [(2R,3S) 2,3,4-trihydroxybutanoyl-hArgChgGln-SerLeu-DOX (3')] (X4-[hArg][Chg]QSL-{Doxorubicin(3'-N)})",Substrate cleavage by York PSA at 4 HOUR,free PSA [1],0%
"COc1cccc2c1C(=O)c1c(O)c3c(c(O)c1C2=O)C[C@@](O)(C(=O)CO)C[C@@H]3O[C@H]1C[C@H](NC(=O)[C@H](CC(C)C)NC(=O)[C@H](CO)NC(=O)[C@H](CCC(N)=O)NC(=O)[C@@H](NC(=O)[C@H](CO)NC(=O)[C@H](C)NC(=O)[C@H](CCCCNC(=N)N)NC(=O)CO)C2CCCCC2)[C@H](O)[C@H](C)O1 [2-hydroxyacetyl-hRASChgQ-SL-DOX(3'), 2-hydroxyacetyl-hArgAlaSerChgGln-SerLeu-DOX (3')] (Glycolyl-[hArg]AS[Chg]QSL-{Doxorubicin(3'-N)})",EC50,DuPRO cells,> 100 µM
"COCCOCCOCC(=O)N[C@@H](CO)C(=O)N[C@@H](CO)C(=O)N[C@@H](CO)C(=O)N[C@H](C(=O)N[C@@H](CCC(N)=O)C(=O)N[C@@H](CO)C(=O)N[C@H](CC(C)C)C(=O)N[C@H]1C[C@H](O[C@H]2C[C@](O)(C(=O)CO)Cc3c(O)c4c(c(O)c32)C(=O)c2c(OC)cccc2C4=O)O[C@@H](C)[C@H]1O)C1CCCCC1 [PEG(2)-SSSChgQ-S(dL)-DOX(3'), PEG(2)-SerSerSerChgGln-Ser(dLeu)-DOX (3')]",Substrate cleavage by York PSA at 3 HOUR,free PSA [1]; 3 hours,46%
"COCCOCCOCC(=O)N[C@@H](CCCCN)C(=O)N[C@@H](Cc1ccc(O)cc1)C(=O)N[C@@H](CCC(N)=O)C(=O)N[C@@H](CO)C(=O)N[C@@H](CO)C(=O)N[C@@H](CO)C(=O)N[C@@H](CC(C)C)C(=O)N[C@H]1C[C@H](O[C@H]2C[C@](O)(C(=O)CO)Cc3c(O)c4c(c(O)c32)C(=O)c2c(OC)cccc2C4=O)O[C@@H](C)[C@H]1O [PEG(2)-KYQ-SSSL-DOX(3'), PEG(2)-LysTyrGln-SerSerSerLeu-DOX (3')] ({Decanoyl(3,6,9-trioxa)}-KYQSSSL-{Doxorubicin(3'-N)})",Substrate cleavage by York PSA at 4 HOUR,free PSA [1],20%
COCCOCCOCCOCCOCCOCCOCCOCCOCCOCCOCCOCCOCCOCCOCCOCCOCC(=O)N[C@@H](CO)C(=O)N[C@@H](CCCCNC(=N)N)C(=O)N[C@@H](Cc1ccc(O)cc1)C(=O)N[C@@H](CCC(N)=O)C(=O)N[C@@H](CO)C(=O)N[C@@H](CC(C)C)C(=O)O [PEG(16)-ShRYQ-SL-acid] (X2-S[hArg]YQSL-OH),Time to 50% Substrate Cleavage by York PSA,"free PSA [2]; free psa, pH 8",40 min
COCCOCC(=O)N[C@@H](CO)C(=O)N[C@@H](CCCCNC(=N)N)C(=O)N[C@H](C(=O)N[C@@H](CCC(N)=O)C(=O)N[C@@H](CO)C(=O)N[C@@H](CC(C)C)C(=O)O)C1CCCCC1 [PEG(1)-ShRChgQ-SL-acid] (MeOCH2CH2OCH2CO-S[hArg][Chg]QSL-OH),"Time to 50% Substrate Cleavage by York PSA (Min), values marked *",free PSA [2]; free psa,120 min
COCCOCC(=O)N[C@@H](CCCCNC(=N)N)C(=O)N[C@@H](CO)C(=O)N[C@@H](CO)C(=O)N[C@H](C(=O)N[C@@H](CCC(N)=O)C(=O)N[C@@H](CO)C(=O)N[C@@H](CC(C)C)C(=O)O)C1CCCCC1 [PEG(1)-hRSSChgQ-SL-acid] (MeOCH2CH2OCH2CO-[hArg]SS[Chg]QSL-OH),Time to 50% Substrate Cleavage by York PSA,"free PSA [2]; free psa, pH 8",30 min
"COCCOCCOCCOCCOCCOCCOCC(=O)N[C@@H](C)C(=O)N[C@@H](CO)C(=O)N[C@H](C(=O)N[C@@H](CCC(N)=O)C(=O)N[C@@H](CO)C(=O)N[C@@H](CC(C)C)C(=O)N[C@H]1C[C@H](O[C@H]2C[C@](O)(C(=O)CO)Cc3c(O)c4c(c(O)c32)C(=O)c2c(OC)cccc2C4=O)O[C@@H](C)[C@H]1O)C1CCCCC1 [PEG(6)-ASChgQ-SL-DOX(3'), PEG(6)-AlaSerChgGln-SerLeu-DOX (3')] (X1-AS[Chg]QSL-{Doxorubicin(3'-N)})",EC50,DuPRO cells,100 µM
CC(C)C[C@H](NC(=O)[C@H](CO)NC(=O)[C@H](CCC(N)=O)NC(=O)[C@H](Cc1ccc(O)cc1)NC(=O)[C@H](CCCCNC(=N)N)NC(=O)CO)C(=O)O [2-hydroxyacetylhRYQ-SL-acid] (Glycolyl-[hArg]YQSL-OH),"Time to 50% Substrate Cleavage by York PSA (Min), values marked *",free PSA [2]; free psa,105 min
CCCC[C@H](NC(=O)[C@H](CO)NC(=O)[C@H](CCC(N)=O)NC(=O)[C@@H](NC(=O)[C@H](CCCCNC(=N)N)NC(=O)[C@H](CO)NC(C)=O)C1CCCCC1)C(=O)O [Ac-ShRChgQ-SNle-acid] (Ac-S[hArg][Chg]QS[Nle]-OH),Solubility remark in the cleavage column (INSOLUBLE / PS / PP),"free PSA [2]; Table 2, oligopeptides, abbreviations not defined",INSOLUBLE
"CC(C)C[C@H](NC(=O)[C@H](CO)NC(=O)[C@H](CCC(N)=O)NC(=O)[C@@H](NC(=O)[C@H](CO)NC(=O)[C@H](CO)NC(=O)CNC(=O)C(O)CO)C1CCCCC1)C(=O)O (stereo partly shown) [2,3-dihydroxypropionyl-GSSChgQ-SL-acid] (X3-GSS[Chg]QSL-OH)",Time to 50% Substrate Cleavage by York PSA,"free PSA [2]; free psa, pH 8",160 min
"COc1cccc2c1C(=O)c1c(O)c3c(c(O)c1C2=O)C[C@@](O)(C(=O)CO)C[C@@H]3O[C@H]1C[C@H](NC(=O)[C@H](CC(C)C)NC(=O)[C@H](CO)NC(=O)[C@H](CCC(N)=O)NC(=O)[C@H](Cc2ccc(O)cc2)NC(=O)[C@H](CO)NC(=O)[C@H](CO)NC(=O)[C@H](CCCCNC(=N)N)NC(=O)CO)[C@H](O)[C@H](C)O1 [2-hydroxyacetyl-hRSSYQ-SL-DOX(3'), 2-hydroxyacetyl-hArgSerSerTyrGln-SerLeu-DOX (3')] (Glycolyl-[hArg]SSYQSL-{Doxorubicin(3'-N)})",EC50,DuPRO cells,> 100 µM
"COCCOCCOCC(=O)N[C@@H](CO)C(=O)N[C@@H](CO)C(=O)N[C@@H](Cc1ccc(O)cc1)C(=O)N[C@@H](CCC(N)=O)C(=O)N[C@@H](CO)C(=O)N[C@@H](CC(C)C)C(=O)O [PEG(2)-SSYQ-SL-acid] ({Decanoyl(3,6,9-trioxa)}-SSYQSL-OH)",Time to 50% Substrate Cleavage by York PSA,"free PSA [2]; free psa, pH 8",150 min
"COCCOCCOCC(=O)N[C@@H](CO)C(=O)N[C@@H](CO)C(=O)N[C@@H](CO)C(=O)N[C@H](C(=O)N[C@@H](CCC(N)=O)C(=O)N[C@@H](CO)C(=O)N[C@@H](CC(C)C)C(=O)O)C1CCCCC1 [PEG(2)SSSChgQ-SL-acid] ({Decanoyl(3,6,9-trioxa)}-SSS[Chg]QSL-OH)",Time to 50% Substrate Cleavage by York PSA,"free PSA [2]; free psa, pH 8",150 min
"COc1cccc2c1C(=O)c1c(O)c3c(c(O)c1C2=O)C[C@@](O)(C(=O)CO)C[C@@H]3O[C@H]1C[C@H](NC(=O)[C@H](CC(C)C)NC(=O)[C@H](CO)NC(=O)[C@H](CCC(N)=O)NC(=O)[C@@H](NC(=O)[C@H](CO)NC(=O)[C@H](CO)NC(=O)[C@H](Cc2cccnc2)NC(=O)[C@H](O)CO)C2CCCCC2)[C@H](O)[C@H](C)O1 [(d)(2,3-dihydroxypropionyl)-3PAL-SerSerChgGln-SerLeu-DOX (3')] ({Glyceroyl(2R)}-[3Pal]SS[Chg]QSL-{Doxorubicin(3'-N)})",EC50,DuPRO cells,> 100 µM
"COCCOCCOCC(=O)N[C@@H](CCCCNC(=N)N)C(=O)N[C@@H](CO)C(=O)N[C@@H](CO)C(=O)N[C@H](C(=O)N[C@@H](CCC(N)=O)C(=O)N[C@@H](CO)C(=O)N[C@@H](CC(C)C)C(=O)O)C1CCCCC1 [PEG(2)-hRSSChgQ-SL-acid] ({Decanoyl(3,6,9-trioxa)}-[hArg]SS[Chg]QSL-OH)","Time to 50% Substrate Cleavage by York PSA (Min), values marked *",free PSA [2]; free psa,40 min
CC(=O)N[C@@H](CCCCNC(=N)N)C(=O)N[C@@H](C)C(=O)N[C@@H](CO)C(=O)N[C@H](C(=O)N[C@@H](CCC(N)=O)C(=O)N[C@@H](CO)C(=O)N[C@@H](CC(C)C)C(=O)O)C1CCCCC1 [Ac-hRASChgQ-SL-acid] (Ac-[hArg]AS[Chg]QSL-OH),Time to 50% Substrate Cleavage by York PSA,"free PSA [2]; free psa, pH 8",50 min
COCCOCCOCCOCCOCCOCCOCCOCCOCCOCCOCCOCCOCCOCCOCCOCCOCCOCC(=O)N[C@@H](CO)C(=O)N[C@@H](CCCCNC(=N)N)C(=O)N[C@@H](Cc1ccc(O)cc1)C(=O)N[C@@H](CCC(N)=O)C(=O)N[C@@H](CO)C(=O)N[C@@H](CC(C)C)C(=O)O [PEG(17)-ShRYQ-SL-acid],Time to 50% Substrate Cleavage by York PSA,"free PSA [2]; Table 2, oligopeptides, PSA digestion buffer 12 mM Tris pH8.0, 25 mM NaCl, 0.5 mM CaCl2, substrate:PSA 100 to 1",55 min
